The values that follow come from patent US20130158098A1, “Alkenyl Substituted Cycloaliphatic Compounds as Chemical Inducers of Proximity” (priority 2010, published 2013).

“Also recorded” adds a separate entry of the source.

The nature of data set [1]: ABA stability in fetal bovine serum (luciferase biofunctional readout). Type of data set: in vitro ADME. The settings on record: 37° C. How it is done: FIG. 3C provides the results of a stability test of ABA in cell culture conditions. CHO cells were pre-transfected with the activation and reporter DNA constructs for 24 hours. 100 μM ABA was then added to the culture and cells were assayed for luciferase activity after 10 hours. During the 10-hour incubation, the cell culture media were replaced with media containing freshly added ABA every 1, 2.5, 5 hour or no replacement. FIG. 4A illustrates the results of an experiment in which human serum pre-incubated ABA was used to induce luciferase transcription. ABA was incubated with pure non-heat inactivated human serum at 37° C. for indicated time period. ABA containing serum was then added to the CHO cell culture to a final 100 μM ABA concentration for 25 hours and cells were assayed for luciferase activity. The cells were pre-transfected with the activation and reporter DNA constructs for 24 hours. […]
In plants, ABA had been reported to be unstable due to active enzymatic degradation (Cutler, A. J. and Krochko, J. E. (1999) Formation and breakdown of ABA. Trends Plant Sci. 4, 472-478). […] The activity of residual ABA in the serum was measured by its ability to induce the transcriptional activation of the luciferase reporter in cells expressing the ABA-activator cassette. […] Using this assay, the bioavailability in mice was evaluated. […]

Data set [2] relates to T cells isolated from spleens of C57BL/6J mice. Kind of data set: Lymphocyte proliferation assay. Type of data set: cell-based, mouse. The settings on record: anti-CD3 and anti-CD28 stimulation, 72 hours. How it is done: Naïve T cells were isolated from spleens of C57BL/6J mice with MACS T cell isolation kit (Miltenyi Biotec). Isolated T cells were stimulated for 72 hours at 37° C. with plate-bound monoclonal antibodies against CD3 (10 μg/ml) and CD28 (2 μg/ml) before cell count measurements.

Consider `CC1=CC(=O)CC(C)(C)C1(O)/C=C/C(C)=C/C(=O)O` (stereo not drawn) [ABA, abscisic acid], for which the “reduction in ability to induce transcription of luciferase” value in data set [1] (pure fetal bovine serum, up to 48 hours) is “no significant reduction”. The “stability in fetal calf serum” value in data set [1] (pure heat inactivated fetal bovine serum) is on record as “stable”. In addition, the “effect upon proliferation induced by antigen receptor signaling” value in data set [2] is given as “No statistically significant effect; also recorded: did not have an adverse effect”.
